We go through one molecule from patent US8524765B2, “Compounds that modulate intracellular calcium” (Calcimedica, Inc., priority 2007, dated 2013).

Experiment [1] has as its system store-operated calcium entry in RBL-2H3 cells. In words: Fluorescence (FLUO-4/FLIPR384) store-operated calcium entry screening assay. It counts as cell-based, rat. The method, then: Fluorescence-based assays were used for screening the compounds described herein, such as compounds of Formula (I) and Formula (II), which modulate intracellular calcium.
RBL-2H3 cells plated in 384-well plates were loaded for 45 min with FLUO-4-AM (2 μM final concentration) in HBSS. Cells were washed and placed in a nominally Ca^2+- and Mg^2+-free Hanks solution. One minute later, a test agent or vehicle was added. After a 15 minute incubation period, 1 μM thapsigargin (Tg) was added to inhibit the ER Ca^2+ pump and discharge intracellular Ca^2+ stores. Fifteen minutes after addition of Tg, store-operated calcium entry was initiated by adding external Ca^2+ to a final concentration of 1.8 mM and the cells monitored for a further 10-15 minutes. Calcium levels were monitored throughout the assay using a FLIPR^384 (Molecular Devices fluorimetric imaging plate reader for high throughput screening).
A similar screening assay procedure was used with HEK293 and RBL-2H3 cells.
The kinetic data from the FLIPR^384 were analyzed and then stored in a relational database (ActivityBase; IDBS). Ten quantitative parameters were calculated that define various aspects of the store-operated calcium entry response. These parameters are as follows:
Up slope: linear regression of the increase in RFU from 2 to 30 sec after addition of Ca^2+.
Combinations of these parameters were used to characterize the compounds of Formula (I). Compounds were retested under identical conditions to confirm their activity. Compounds with confirmed activity were then analyzed for concentration-dependent effects, and subsequently, those compounds displaying concentration-dependent effects were categorized as compounds that modulate intracellular calcium.

In experiment [2] the test system is RBL-2H3 cells. As to the kind of experiment: Degranulation (β-hexosaminidase release) assay. Format: cell-based. The note with it: Rattus norvegicus. The protocol: To assess degranulation and cytokine release, RBL-2H3 cells were plated and stimulated with 20 nM thapsigargin/20 nM TPA for 20 hr in the presence or absence of compound of Formula (I) or Formula (II). Media was collected and assayed for the release of β-hexosaminidase or for the release of the inflammatory mediator cytokine TNF-α. The β-hexosaminidase enzymatic assay was performed by adding 200 μL 1 mM p-nitrophenyl-acetyl-glucosamide substrate (Sigma #N9376) in 0.05M Na Citrate (pH 4.5) to 50 μL of conditioned medium, incubating for 60 min at 37° C., then adding 500 μL 0.05M Na carbonate, 0.05M Na bicarbonate pH 10.5, mixing thoroughly, and reading the absorbance at 405 nm in a BioRad plate reader. The TNF-α release assay was performed using the Rat Tumor Necrosis Factor-a Ultrasensitive ELISA Kit from BioSource.

Experiment [3] relates to SOCE in rat T cells. As to the kind of experiment: SOCE in rat T cells. It counts as cell-based. The note with it: T-cell, FIG. 5, read-out: IC50 for inhibition of SOCE.
The subject of experiment [4] is rat T cells. As to the kind of experiment: Cell proliferation of rat T cells. Format: cell-based. The note with it: FIG. 5, read-out: IC50 for inhibition of cell proliferation.
Experiment [5] deals with rat T cells. As to the kind of experiment: IL-2 secretion in rat T cells. The note with it: T-cell, FIG. 5, read-out: IC50 for inhibition of IL-2 secretion. Format: cell-based.
For experiment [6], the system named is Jurkat T cells. In words: IL-2 secretion from Jurkat T cells (PHA+TPA, ELISA). Format: cell-based. The method, then: To measure IL-2 secretion from Jurkat T cells, cells were plated in a 96 well plate at a density of 1.5×10^5 cells/well. Cells were stimulated with 2.5 μg/ml PHA lectin+80 nM TPA for 20 hr in the presence or absence of a compound of Formula (I) or Formula (II). The medium was then collected and analyzed for IL-2 levels by ELISA (BioSource) according to the manufacturer's protocols.
Background: In an ELISA, binding on a coated surface is turned into a signal by an enzyme label.

For experiment [7], the system named is SOCE. In words: Selectivity profile. The note with it: FIG. 8.
The test system of experiment [8] is HEK[STIM1] cells. In words: STIM1-dependent Ca2+ entry in STIM1-overexpressing cells. Format: cell-based, human. The note with it: HEK293 overexpressing STIM1, no Tg store depletion; FIG. 13. The protocol:
To test whether the Ca^2+ entry pathway activated by STIM1 overexpression is pharmacologically similar to endogenous SOCE, HEK[STIM1] cells were pre-incubated with increasing doses of 2-APB and STIM1-dependent Ca^2+ entry was measured.

Experiment [9] has as its target T1, hOrail/hSTIM1 (Homo sapiens, UniProt Q96D31).
T1 construct: expressed in transfected cells
As to the kind of experiment: Recombinant hOrail/hSTIM1-dependent Ca2+ entry in stable cells. It counts as cell-based. The note with it: FIG. 14.

Experiment [10] can be described thus: Skin transplant rejection in Lewis rats. The note with it: FIG. 18. It counts as in vivo, rat.
Experiment [11] can be described thus: DNBS-induced colitis in rats (ulcerative colitis model for IBD). It counts as in vivo, rat. The note with it: FIG. 20. The method, then: Procedure: Male Wistar rats weighing 200±20 g are fasted for 24 hours prior to use. Distal colitis is induced by intra-colonic instillation of DNBS (2,4-dinotrobenzene sulfonic acid, 20 mg in 0.5 ml ethanol 30%) with a catheter of 12 cm in length, followed by gentle injection of air (2 ml) through the catheter to ensure that the solution remain in the colon. The animals are divided into groups of 5 each. Test substance and vehicle are administered either daily or twice daily by appropriate route of administration 24 hour and 1 hour before DNBS instillation and then for 6 consecutive days thereafter. One normal control group is treated with 0.9% NaCl alone without DNBS challenge. […] During the experiment, body weight, fecal occult blood and stool consistency are monitored daily. Furthermore, when the abdominal cavity is opened before removal of the colon, adhesions between the colon and other organs are noted as is the presence of colonic ulceration after removal and weighing of each colon (a macroscopic damage score is recorded according to established score criteria). The colon-to-body weight ratio is calculated according to the formula: Colon (g)/BW×100. The “Net” increase in ratio of Vehicle-control+DNBS group relative to Vehicle-control group is used as a base for comparison with individual treated groups and expressed as “Dec. […]

“Also recorded” adds a separate entry of the source. Where two headings read alike, the source gives them in different places. Where only a bound is given, the exact number is not on record here.

T1 sequence (Q96D31 whole entry): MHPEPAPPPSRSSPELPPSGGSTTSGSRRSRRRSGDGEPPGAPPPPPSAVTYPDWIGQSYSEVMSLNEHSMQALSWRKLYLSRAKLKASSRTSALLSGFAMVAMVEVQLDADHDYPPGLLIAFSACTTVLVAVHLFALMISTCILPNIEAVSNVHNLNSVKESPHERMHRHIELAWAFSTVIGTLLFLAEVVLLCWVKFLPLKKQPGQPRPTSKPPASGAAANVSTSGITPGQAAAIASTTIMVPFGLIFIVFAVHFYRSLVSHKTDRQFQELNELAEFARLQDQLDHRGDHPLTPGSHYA
T1 sequence (Q13586 23-685 partner): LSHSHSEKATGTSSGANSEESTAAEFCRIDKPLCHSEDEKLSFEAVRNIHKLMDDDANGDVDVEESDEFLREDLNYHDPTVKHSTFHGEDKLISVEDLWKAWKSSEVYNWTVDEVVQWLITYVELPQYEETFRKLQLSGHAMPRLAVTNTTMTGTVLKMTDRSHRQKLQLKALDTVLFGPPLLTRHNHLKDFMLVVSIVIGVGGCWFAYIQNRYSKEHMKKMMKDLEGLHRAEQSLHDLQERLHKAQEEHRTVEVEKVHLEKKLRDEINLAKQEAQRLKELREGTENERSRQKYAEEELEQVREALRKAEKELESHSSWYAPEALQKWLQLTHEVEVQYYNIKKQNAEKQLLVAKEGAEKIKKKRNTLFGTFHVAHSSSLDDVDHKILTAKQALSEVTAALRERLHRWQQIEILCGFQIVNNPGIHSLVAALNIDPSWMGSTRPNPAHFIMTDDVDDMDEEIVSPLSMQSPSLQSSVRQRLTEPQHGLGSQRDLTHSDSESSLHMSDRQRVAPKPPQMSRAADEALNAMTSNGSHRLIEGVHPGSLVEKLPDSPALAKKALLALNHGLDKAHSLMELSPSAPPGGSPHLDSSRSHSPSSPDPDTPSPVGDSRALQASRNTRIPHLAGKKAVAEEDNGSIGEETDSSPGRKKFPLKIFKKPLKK

`O=C(Nc1scc(-c2ccc(Br)cc2)c1C(=O)O)c1ccc(F)cc1` [Compound 1, 2-(4-fluorobenzamido)-4-(4-bromophenyl)thiophene-3-carboxylic acid]: the “inhibition of the initial kinetics of the CRAC channel response” value in experiment [1] (RBL-2H3 cells, FIG. 2) is listed as “concentration-dependent inhibition”. The inhibition (commonly how much of the control response was suppressed) at 10 µM in experiment [1] (Rattus norvegicus, RBL-2H3, 10 μM, cell line not stated) is over 70%. The IC50 in experiment [1] (Rattus norvegicus, Up slope parameter, RBL-2H3 cells) was 2.2 µM; in experiment [2] (RBL-2H3, 2 hour TG/TPA induction in HBSS+1% serum, 10 minute pretreatment, FIG. 4, read-out: IC50 for inhibition of degranulation, presence of serum), 1000 to 3000 nM; in experiment [2] (RBL-2H3, 2 hour TG/TPA induction in HBSS, 10 minute pretreatment, FIG. 4, read-out: apparent IC50 for inhibition of degranulation, absence of serum), under 300 nM; in experiment [2] (RBL-2H3 cells induced with TG/TPA, FIG. 3, read-out: IC50 for inhibition of degranulation), 2600 nM; in experiment [3], about 2400 nM; in [4], about 4.3 µM. Besides, the IC50 in [5] is about 2500 nM; in experiment [6] (Homo sapiens, Jurkat T cells stimulated with PHA+TPA, FIG. 7, read-out: IC50 for inhibition of IL-2 release), about 500 nM. The “effect of combination with cyclosporin A on IL-2 secretion” value in experiment [6] (Jurkat T cells stimulated with PHA/TPA, Compound 1 together with cyclosporin A, FIG. 10) is given as “additive effects”. The selectivity profile result in experiment [7] is reported as “selective inhibitor of SOCE”. Further, the “effect on STIM1-dependent Ca2+ entry” value in [8] is “concentration dependent inhibition; also recorded: blocked”. For the same molecule, the “effect on recombinant hOrail/hSTIM1-dependent Ca2+ entry” value in [9] was “inhibition”. Besides, in experiment [10], the “rejection of skin transplants” value was “delayed rejection”. Moreover, the “inflammation in the rat ulcerative colitis model for IBD” value in experiment [11] is “inhibition of inflammation”.
